# ChEMBL document CHEMBL5523761 (J Med Chem, 2024)
# Key:
# [1] = molecular target: T1, D(1A) dopamine receptor (Homo sapiens, UniProt P21728)
# Description: Inhibition of D1 receptor (unknown origin)
# [2] = molecular target: T2, D(2) dopamine receptor (Homo sapiens, UniProt P14416)
# Description: Inhibition of D2 receptor (unknown origin)
# [3] = molecular target: T1, D(1A) dopamine receptor; remark: listed apart in the source
# Description: Binding affinity to D1 receptor (unknown origin) assessed as inhibition constant
# [4] = molecular target: T2, D(2) dopamine receptor; remark: listed apart in the source
# Description: Binding affinity to D2 receptor (unknown origin) assessed as inhibition constant
# [5] = molecular target: T3, D(4) dopamine receptor (Homo sapiens, UniProt P21917)
# T3 sequence (P21917 whole entry): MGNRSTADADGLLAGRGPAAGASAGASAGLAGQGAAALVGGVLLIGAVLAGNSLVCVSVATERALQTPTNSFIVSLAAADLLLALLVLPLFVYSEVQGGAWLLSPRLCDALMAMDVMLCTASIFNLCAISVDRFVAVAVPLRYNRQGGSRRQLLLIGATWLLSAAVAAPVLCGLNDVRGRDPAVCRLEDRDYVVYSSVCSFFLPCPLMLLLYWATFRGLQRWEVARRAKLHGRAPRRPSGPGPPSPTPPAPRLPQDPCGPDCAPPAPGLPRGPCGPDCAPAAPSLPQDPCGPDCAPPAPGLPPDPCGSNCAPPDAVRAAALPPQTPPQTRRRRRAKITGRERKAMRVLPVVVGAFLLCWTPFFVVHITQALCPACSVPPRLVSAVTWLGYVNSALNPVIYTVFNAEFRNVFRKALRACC
# Description: Agonist activity at D4 receptor (unknown origin)
# [6] = molecular target: T4, Amine oxidase [flavin-containing] A (Homo sapiens, UniProt P21397)
# T4 sequence (P21397 whole entry): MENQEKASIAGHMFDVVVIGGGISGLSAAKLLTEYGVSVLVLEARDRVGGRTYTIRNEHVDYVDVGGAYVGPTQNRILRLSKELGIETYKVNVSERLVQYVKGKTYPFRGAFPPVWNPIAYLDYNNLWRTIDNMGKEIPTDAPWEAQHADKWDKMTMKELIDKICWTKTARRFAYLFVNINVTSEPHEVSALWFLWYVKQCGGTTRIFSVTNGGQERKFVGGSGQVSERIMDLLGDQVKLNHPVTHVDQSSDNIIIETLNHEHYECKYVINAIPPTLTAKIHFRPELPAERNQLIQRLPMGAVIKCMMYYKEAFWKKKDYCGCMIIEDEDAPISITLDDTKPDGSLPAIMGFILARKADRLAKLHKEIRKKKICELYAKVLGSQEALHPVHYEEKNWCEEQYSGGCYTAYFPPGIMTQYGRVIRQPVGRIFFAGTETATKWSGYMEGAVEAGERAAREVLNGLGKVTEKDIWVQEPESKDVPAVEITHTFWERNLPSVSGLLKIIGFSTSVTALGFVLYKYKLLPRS
# Description: Inhibition of MAO-A (unknown origin) measured by MAO-GloTM method
# [7] = molecular target: T5, Amine oxidase [flavin-containing] B (Homo sapiens, UniProt P27338)
# T5 sequence (P27338 whole entry): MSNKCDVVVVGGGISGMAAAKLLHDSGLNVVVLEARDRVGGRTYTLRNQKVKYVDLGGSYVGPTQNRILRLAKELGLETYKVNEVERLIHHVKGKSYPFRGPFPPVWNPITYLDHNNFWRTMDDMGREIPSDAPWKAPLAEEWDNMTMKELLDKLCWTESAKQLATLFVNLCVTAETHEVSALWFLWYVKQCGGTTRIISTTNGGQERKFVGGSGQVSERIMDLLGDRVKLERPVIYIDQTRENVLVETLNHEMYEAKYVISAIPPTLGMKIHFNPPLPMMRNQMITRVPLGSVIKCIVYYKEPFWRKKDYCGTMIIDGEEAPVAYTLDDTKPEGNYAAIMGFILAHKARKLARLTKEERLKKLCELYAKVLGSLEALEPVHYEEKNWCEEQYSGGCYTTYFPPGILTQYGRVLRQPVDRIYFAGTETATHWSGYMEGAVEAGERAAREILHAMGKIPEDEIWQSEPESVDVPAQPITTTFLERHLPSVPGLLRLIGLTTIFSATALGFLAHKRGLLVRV
# Description: Inhibition of MAO-B (unknown origin) measured by MAO-GloTM method
# [8] = molecular target: T2, D(2) dopamine receptor; remark: listed apart in the source
# Description: Antagonist activity at D2 receptor (unknown origin)
# [9] = molecular target: T6, D(3) dopamine receptor (Homo sapiens, UniProt P35462)
# Description: Binding affinity to D3 receptor (unknown origin) assessed as inhibition constant
# [10] = molecular target: 5-hydroxytryptamine receptor 2A (Homo sapiens, UniProt P28223)
# Description: Binding affinity to 5HT2A (unknown origin) assessed as inhibition constant
# [11] = molecular target: T7, Alpha-1A adrenergic receptor (Homo sapiens, UniProt P35348)
# T7 sequence (P35348 whole entry): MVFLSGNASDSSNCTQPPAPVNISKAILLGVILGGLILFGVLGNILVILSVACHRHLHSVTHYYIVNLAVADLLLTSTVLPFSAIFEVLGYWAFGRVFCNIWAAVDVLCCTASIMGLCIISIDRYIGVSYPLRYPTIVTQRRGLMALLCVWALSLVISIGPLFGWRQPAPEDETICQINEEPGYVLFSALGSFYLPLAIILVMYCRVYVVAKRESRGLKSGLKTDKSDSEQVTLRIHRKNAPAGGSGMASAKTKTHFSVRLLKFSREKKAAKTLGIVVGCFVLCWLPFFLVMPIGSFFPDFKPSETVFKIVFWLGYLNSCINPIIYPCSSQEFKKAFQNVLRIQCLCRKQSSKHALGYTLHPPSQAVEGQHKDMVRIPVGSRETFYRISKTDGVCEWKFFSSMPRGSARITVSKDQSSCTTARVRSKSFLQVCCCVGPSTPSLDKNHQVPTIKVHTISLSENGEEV
# Description: Binding affinity to alpha1A adrenergic receptor (unknown origin) assessed as inhibition constant
# [12] = molecular target: 5-hydroxytryptamine receptor 7 (Homo sapiens, UniProt P34969)
# Description: Binding affinity to 5HT7 receptor (unknown origin) assessed as inhibition constant
# [13] = molecular target: 5-hydroxytryptamine receptor 1B (Homo sapiens, UniProt P28222)
# Description: Binding affinity to 5HT1B receptor (unknown origin) assessed as inhibition constant
# [14] = molecular target: 5-hydroxytryptamine receptor 1D (Homo sapiens, UniProt P28221)
# Description: Binding affinity to 5HT1D receptor (unknown origin) assessed as inhibition constant
# [15] = molecular target: T8, 5-hydroxytryptamine receptor 2C (Homo sapiens, UniProt P28335)
# T8 sequence (P28335 whole entry): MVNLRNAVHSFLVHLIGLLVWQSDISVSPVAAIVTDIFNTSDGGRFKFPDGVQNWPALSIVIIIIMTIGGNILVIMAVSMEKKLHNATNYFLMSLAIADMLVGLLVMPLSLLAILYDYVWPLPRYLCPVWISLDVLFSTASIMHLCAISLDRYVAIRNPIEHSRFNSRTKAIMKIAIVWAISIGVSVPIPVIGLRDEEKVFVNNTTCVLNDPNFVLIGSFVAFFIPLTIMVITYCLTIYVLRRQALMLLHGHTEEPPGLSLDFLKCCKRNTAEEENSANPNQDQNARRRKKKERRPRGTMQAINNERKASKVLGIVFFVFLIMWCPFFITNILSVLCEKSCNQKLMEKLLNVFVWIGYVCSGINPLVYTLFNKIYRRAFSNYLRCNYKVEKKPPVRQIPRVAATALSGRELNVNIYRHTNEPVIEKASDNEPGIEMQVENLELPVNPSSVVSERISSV
# Description: Binding affinity to 5HT2C receptor (unknown origin) assessed as inhibition constant
# [16] = molecular target: T9, Alpha-2C adrenergic receptor (Homo sapiens, UniProt P18825)
# T9 sequence (P18825 whole entry): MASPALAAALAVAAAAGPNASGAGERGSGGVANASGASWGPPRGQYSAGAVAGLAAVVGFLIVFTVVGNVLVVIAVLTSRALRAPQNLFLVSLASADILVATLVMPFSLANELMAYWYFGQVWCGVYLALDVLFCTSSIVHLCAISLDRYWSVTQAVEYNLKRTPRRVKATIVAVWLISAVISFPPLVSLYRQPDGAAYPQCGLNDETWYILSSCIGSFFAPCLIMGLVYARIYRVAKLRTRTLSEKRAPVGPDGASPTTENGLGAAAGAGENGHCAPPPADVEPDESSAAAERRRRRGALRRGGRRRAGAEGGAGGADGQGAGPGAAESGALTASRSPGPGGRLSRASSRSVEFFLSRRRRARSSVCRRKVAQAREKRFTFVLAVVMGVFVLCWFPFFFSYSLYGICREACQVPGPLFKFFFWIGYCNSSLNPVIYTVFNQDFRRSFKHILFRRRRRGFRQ
# Description: Binding affinity to alpha2C adrenergic receptor (unknown origin) assessed as inhibition constant
# [17] = molecular target: T2, D(2) dopamine receptor; remark: listed apart in the source
# [18] = molecular target: T2, D(2) dopamine receptor; remark: listed apart in the source
# [19] = molecular target: T2, D(2) dopamine receptor; remark: listed apart in the source
# Description: Binding affinity to D2S receptor (unknown origin) assessed as inhibition constant
# [20] = molecular target: T6, D(3) dopamine receptor; remark: listed apart in the source
# Description: Inhibition of D3 receptor (unknown origin)
# [21] = molecular target: Vasopressin V1a receptor (Homo sapiens, UniProt P37288)
# Description: Inhibition of Vasopressin V1A receptor (unknown origin)
# [22] = molecular target: T6, D(3) dopamine receptor; remark: listed apart in the source
# Description: Agonist activity at D3 receptor (unknown origin)
# [23] = molecular target: T2, D(2) dopamine receptor; remark: listed apart in the source
# Description: Binding affinity to D2L receptor (unknown origin) assessed as inhibition constant
# [24] = molecular target: T3, D(4) dopamine receptor; remark: listed apart in the source
# Description: Binding affinity to D4 receptor (unknown origin) assessed as inhibition constant
# [25] = molecular target: T3, D(4) dopamine receptor; remark: listed apart in the source
# Description: Inhibition of D4 receptor (unknown origin)
# [26] = molecular target: Acetylcholinesterase (Homo sapiens, UniProt P22303)
# Description: Inhibition of AChE (unknown origin) by Ellman's colorimetric method
# [27] = molecular target: Beta-secretase 1 (Homo sapiens, UniProt P56817)
# Description: Inhibition of BACE1 (unknown origin) by FRET assay
# [28] = molecular target: Cholinesterase (Homo sapiens, UniProt P06276)
# Sequence of Cholinesterase (P06276 whole entry): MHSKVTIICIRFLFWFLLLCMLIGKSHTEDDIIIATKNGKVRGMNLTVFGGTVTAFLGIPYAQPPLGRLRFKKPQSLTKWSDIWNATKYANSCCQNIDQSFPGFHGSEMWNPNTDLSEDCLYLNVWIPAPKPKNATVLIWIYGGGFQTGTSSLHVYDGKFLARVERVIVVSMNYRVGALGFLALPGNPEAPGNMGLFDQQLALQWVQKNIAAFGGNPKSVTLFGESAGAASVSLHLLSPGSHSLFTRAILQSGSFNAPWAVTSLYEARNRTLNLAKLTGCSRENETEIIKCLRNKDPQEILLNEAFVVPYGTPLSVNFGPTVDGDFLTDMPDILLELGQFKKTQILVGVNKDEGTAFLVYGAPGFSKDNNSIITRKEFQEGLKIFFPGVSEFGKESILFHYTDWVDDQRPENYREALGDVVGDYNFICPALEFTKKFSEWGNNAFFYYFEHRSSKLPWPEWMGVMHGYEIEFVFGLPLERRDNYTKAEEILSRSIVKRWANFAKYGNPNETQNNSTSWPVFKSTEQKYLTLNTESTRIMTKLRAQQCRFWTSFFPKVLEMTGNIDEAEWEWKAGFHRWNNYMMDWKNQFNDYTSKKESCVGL
# Description: Inhibition of BChE (unknown origin) by Ellman's colorimetric method
# T6 sequence (P35462 whole entry): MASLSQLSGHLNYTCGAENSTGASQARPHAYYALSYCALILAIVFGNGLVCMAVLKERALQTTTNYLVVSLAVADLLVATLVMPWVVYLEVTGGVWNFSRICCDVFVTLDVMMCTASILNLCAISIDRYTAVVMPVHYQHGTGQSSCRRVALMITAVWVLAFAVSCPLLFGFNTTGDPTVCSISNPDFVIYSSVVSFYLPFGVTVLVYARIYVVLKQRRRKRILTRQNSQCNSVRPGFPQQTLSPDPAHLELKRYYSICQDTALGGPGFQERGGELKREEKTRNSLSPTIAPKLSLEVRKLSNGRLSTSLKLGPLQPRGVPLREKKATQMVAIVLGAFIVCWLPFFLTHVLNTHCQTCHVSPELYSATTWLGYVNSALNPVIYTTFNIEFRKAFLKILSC
# T1 sequence (P21728 whole entry): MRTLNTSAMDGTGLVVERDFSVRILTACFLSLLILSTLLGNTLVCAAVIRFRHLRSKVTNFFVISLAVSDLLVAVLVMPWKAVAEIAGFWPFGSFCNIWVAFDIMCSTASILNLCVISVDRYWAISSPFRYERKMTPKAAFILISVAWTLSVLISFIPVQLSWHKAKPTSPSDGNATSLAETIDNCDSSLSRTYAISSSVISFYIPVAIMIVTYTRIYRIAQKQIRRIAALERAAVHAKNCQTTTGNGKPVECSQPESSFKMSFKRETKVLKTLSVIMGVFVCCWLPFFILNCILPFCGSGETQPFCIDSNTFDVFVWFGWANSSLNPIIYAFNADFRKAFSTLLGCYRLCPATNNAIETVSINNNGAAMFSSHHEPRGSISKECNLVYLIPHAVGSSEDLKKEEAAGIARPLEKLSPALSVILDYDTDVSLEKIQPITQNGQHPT
# T2 sequence (P14416 whole entry): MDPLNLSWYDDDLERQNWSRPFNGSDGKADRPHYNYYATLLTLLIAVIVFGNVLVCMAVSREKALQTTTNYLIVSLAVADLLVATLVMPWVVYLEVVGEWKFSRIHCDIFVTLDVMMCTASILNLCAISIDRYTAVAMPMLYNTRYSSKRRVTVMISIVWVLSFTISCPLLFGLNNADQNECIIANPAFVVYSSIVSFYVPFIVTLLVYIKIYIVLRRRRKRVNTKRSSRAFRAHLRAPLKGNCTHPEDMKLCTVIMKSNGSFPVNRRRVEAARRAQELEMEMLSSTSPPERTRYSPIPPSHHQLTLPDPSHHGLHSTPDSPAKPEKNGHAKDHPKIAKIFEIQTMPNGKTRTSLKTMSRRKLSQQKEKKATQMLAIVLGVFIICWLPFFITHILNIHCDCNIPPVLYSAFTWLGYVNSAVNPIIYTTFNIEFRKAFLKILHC
# Sequence of Vasopressin V1a receptor (P37288 whole entry): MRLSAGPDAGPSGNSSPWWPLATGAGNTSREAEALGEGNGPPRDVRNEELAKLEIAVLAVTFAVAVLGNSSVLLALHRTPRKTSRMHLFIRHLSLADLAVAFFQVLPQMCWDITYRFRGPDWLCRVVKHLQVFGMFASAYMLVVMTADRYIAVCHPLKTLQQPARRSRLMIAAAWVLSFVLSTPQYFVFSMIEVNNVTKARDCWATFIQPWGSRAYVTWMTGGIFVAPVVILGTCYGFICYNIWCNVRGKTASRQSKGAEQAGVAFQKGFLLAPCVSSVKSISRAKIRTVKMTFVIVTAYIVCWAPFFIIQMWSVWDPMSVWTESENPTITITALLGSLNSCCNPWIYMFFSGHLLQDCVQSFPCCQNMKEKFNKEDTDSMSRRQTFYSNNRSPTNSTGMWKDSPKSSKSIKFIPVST
# Sequence of Beta-secretase 1 (P56817 whole entry): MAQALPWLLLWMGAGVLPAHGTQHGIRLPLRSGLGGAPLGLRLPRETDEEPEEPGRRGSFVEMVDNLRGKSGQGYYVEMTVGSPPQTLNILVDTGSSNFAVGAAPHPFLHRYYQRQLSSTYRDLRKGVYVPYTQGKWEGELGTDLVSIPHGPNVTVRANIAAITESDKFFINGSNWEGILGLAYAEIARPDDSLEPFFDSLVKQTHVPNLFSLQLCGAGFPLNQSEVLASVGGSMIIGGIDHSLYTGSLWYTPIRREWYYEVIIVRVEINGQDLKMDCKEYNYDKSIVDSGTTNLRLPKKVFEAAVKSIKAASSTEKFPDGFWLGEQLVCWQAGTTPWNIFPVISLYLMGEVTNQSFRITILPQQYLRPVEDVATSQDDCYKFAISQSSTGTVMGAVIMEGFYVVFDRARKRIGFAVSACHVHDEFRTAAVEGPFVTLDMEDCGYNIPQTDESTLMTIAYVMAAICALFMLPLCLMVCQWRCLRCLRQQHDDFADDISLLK
# Sequence of Acetylcholinesterase (P22303 whole entry): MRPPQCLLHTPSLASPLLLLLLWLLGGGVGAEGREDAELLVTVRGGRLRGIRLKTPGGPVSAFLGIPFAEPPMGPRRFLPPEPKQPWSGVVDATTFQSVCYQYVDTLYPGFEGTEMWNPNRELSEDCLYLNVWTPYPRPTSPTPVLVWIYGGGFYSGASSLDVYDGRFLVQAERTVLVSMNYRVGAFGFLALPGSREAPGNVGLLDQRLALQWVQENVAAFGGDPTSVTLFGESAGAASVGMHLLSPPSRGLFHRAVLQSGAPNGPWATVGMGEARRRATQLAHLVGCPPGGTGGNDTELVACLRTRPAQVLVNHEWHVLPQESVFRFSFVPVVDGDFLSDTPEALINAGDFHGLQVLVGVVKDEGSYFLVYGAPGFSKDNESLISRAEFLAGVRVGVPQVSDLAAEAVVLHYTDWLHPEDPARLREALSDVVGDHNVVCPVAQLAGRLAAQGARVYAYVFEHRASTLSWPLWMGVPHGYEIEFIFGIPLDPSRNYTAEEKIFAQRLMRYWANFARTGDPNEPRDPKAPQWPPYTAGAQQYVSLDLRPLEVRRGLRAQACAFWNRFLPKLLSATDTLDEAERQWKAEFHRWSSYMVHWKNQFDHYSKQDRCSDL
# Sequence of 5-hydroxytryptamine receptor 1B (P28222 whole entry): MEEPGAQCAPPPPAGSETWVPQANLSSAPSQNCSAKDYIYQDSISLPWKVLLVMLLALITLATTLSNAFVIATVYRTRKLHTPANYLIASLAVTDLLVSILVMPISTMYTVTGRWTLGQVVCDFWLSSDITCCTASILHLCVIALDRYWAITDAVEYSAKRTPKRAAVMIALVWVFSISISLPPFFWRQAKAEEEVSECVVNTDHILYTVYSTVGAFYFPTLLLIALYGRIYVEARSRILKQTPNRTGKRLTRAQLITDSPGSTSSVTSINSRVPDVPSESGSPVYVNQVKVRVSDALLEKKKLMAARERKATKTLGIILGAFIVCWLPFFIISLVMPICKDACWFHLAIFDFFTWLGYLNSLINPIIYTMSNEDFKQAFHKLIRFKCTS
# Sequence of 5-hydroxytryptamine receptor 2A (P28223 whole entry): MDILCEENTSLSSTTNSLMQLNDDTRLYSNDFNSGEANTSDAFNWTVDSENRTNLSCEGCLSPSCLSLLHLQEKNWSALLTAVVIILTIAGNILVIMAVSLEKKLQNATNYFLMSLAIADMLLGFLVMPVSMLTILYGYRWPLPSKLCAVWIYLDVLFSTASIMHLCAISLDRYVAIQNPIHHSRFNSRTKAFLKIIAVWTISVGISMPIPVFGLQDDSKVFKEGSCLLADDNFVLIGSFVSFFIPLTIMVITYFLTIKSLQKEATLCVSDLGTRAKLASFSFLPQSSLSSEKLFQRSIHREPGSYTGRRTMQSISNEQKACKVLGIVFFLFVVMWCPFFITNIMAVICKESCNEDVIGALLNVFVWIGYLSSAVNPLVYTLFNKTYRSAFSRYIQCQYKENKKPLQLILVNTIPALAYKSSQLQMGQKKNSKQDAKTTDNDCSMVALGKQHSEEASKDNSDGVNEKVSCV
# Sequence of 5-hydroxytryptamine receptor 7 (P34969 whole entry): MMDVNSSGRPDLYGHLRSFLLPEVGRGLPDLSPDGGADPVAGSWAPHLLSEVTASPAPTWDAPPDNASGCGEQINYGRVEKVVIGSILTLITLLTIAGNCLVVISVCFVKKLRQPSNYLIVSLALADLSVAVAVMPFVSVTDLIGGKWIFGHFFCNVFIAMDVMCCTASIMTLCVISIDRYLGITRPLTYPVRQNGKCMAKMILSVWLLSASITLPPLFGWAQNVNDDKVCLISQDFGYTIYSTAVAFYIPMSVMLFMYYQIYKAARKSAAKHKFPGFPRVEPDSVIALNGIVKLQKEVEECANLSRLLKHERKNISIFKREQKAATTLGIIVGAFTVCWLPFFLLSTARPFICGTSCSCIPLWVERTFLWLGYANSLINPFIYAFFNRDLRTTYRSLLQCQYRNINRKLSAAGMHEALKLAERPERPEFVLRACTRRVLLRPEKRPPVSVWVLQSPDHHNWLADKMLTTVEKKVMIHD
structure (smiles),measurement,setting,value
COc1cc2c(cc1O)Oc1c(O)ccc3c1[C@H](C2)N(C)CC3 [CELTISINE],IC50,[1],60 nM
same,IC50,[2],30 nM
CCN1CCc2cc(OCCF)cc3c2[C@H]1Cc1cccc(O)c1-3,Ki,[3],0.83 nM
CCCCC(=O)Oc1cccc2c1-c1cccc3c1[C@@H](C2)N(CCC)CC3,Ki,[4],340 nM
same,Ki,[3],> 20000 nM
OCc1c(Br)c(O)c(O)c(Br)c1Br,EC50,[5],57200 nM
same,IC50,[6],205000 nM
same,IC50,[7],151000 nM
COc1cc2c(cc1OC)Oc1c(O)ccc3c1[C@@H](C2)N(C)CC3,IC50,[1],80 nM
same,IC50,[2],320 nM
COc1cc2c(cc1OC)-c1c(OC)c(OC)cc3c1[C@H](C2)N(C)CC3 [GLAUCINE],IC50,[8],3020 nM
CCCN1CCc2cccc3c2[C@H]1Cc1cccc(OC(C)=O)c1-3,Ki,[4],72.3 nM
same,Ki,[3],> 10000 nM
C=C1CCC[C@]2(C)Cc3occ(C)c3C[C@@H]12 [ATRACTYLON],IC50,[2],2500 nM
Cc1nc2n(c(=O)c1CCN1CCC(c3noc4cc(F)ccc34)CC1)CCCC2O (stereo unspecified) [PALIPERIDONE],Ki,[4],1.6 nM
same,Ki,[9],7.5 nM
same,Ki,[10],0.83 nM
same,Ki,[11],11 nM
same,Ki,[3],554 nM
same,Ki,[12],6.8 nM
same,Ki,[13],111 nM
same,Ki,[14],7.3 nM
same,Ki,[15],19 nM
same,Ki,[16],2.7 nM
COc1ccc2cc3[n+](cc2c1OC)CCc1cc2c(cc1-3)OCO2 [BERBERINE CHLORIDE],IC50,[17],17100 nM
same,IC50,[18],38600 nM
CCCN1C[C@H](CSC)C[C@@H]2c3cccc4[nH]cc(c34)C[C@H]21 [PERGOLIDE],Ki,[11],888 nM
COc1cc2c(cc1O)CN1CCc3cc(OC)c(O)cc3[C@@H]1C2,Ki,[19],514 nM
O=C(/C=C/c1ccc(O)cc1)c1ccc(O)cc1O [ISOLIQUIRITIGENIN],IC50,[20],62300 nM
same,IC50,[21],78600 nM
Oc1c(O)c(Br)c(COCc2c(Br)c(O)c(O)c(Br)c2Br)c(Br)c1Br,EC50,[5],59000 nM
same,EC50,[22],59000 nM
same,IC50,[6],89300 nM
same,IC50,[7],103000 nM
CCCN1CCc2cccc3c2[C@H]1Cc1cccc(O)c1-3,Ki,[3],699 nM
C=CCN1C[C@H](C(=O)N(CCCN(C)C)C(=O)NCC)C[C@@H]2c3cccc4[nH]cc(c34)C[C@H]21 [CABERGOLINE],Ki,[4],0.36 nM
same,Ki,[3],3800 nM
same,Ki,[23],0.36 nM
COc1cc2c(cc1O)C[C@@H]1c3c(ccc(O)c3O2)CCN1C,IC50,[1],100 nM
same,IC50,[2],220 nM
COc1cc2c(cc1O)[C@@H]1Cc3ccc(O)c(OC)c3CN1CC2 [STEPHOLIDINE],Ki,[4],11.6 nM
same,Ki,[9],23.4 nM
same,Ki,[3],5.1 nM
same,Ki,[24],1450 nM
Oc1cc2c(cc1O)C1Cc3cccc(O)c3CN1CC2 (stereo unspecified),Ki,[9],93 nM
same,Ki,[3],3800 nM
COc1ccc(C[C@H]2c3cc(O)c(OC)cc3CCN2C)cc1O [(S)-RETICULINE],IC50,[1],1800 nM
same,IC50,[2],470 nM
CCCN1CCc2cc(OCCCF)cc3c2[C@H]1Cc1cccc(O)c1-3,Ki,[3],0.54 nM
COc1cc2c(cc1OC)[C@@H]1Cc3ccc(OC)c(OC)c3CN1CC2 [TETRAHYDROPALMATINE],Ki,[4],388 nM
same,Ki,[3],124 nM
COC1=CC2C[C@@H]3c4cc(O)c(OC)cc4CCN3CC2C=C1O (stereo partly specified),Ki,[9],606 nM
same,Ki,[3],8.75 nM
same,Ki,[19],708 nM
COc1cc2c(cc1O)C[C@H]1c3c(cc(O)c(OC)c3-2)CCN1C [BOLDINE],IC50,[8],520 nM
O=c1cc(-c2ccc(O)c(O)c2)oc2cc(O)cc(O)c12 [LUTEOLIN],IC50,[6],8570 nM
same,IC50,[7],> 100000 nM
same,IC50,[25],39600 nM
same,IC50,[21],19500 nM
OCCN1CCN(CCCN2c3ccccc3Sc3ccc(C(F)(F)F)cc32)CC1 [FLUPHENAZINE],Ki,[24],130 nM
C=C(C)[C@H](CC=C(C)C)Cc1c(O)cc(OC)c2c1O[C@H](c1ccc(O)cc1O)CC2=O,IC50,[26],42100 nM
same,IC50,[27],24500 nM
same,IC50,[28],5290 nM
CC(C)C[C@H]1C(=O)N2CCC[C@H]2[C@]2(O)O[C@](NC(=O)[C@@H]3C=C4c5cccc6[nH]c(Br)c(c56)C[C@H]4N(C)C3)(C(C)C)C(=O)N12 [BROMOCRIPTINE],Ki,[11],18 nM
same,Ki,[3],3420 nM
